According to patent US9655891B1, “Use of isoquinoline derivatives for diabetic wound healing” (ZIH YUAN TANG Biotechnology Co., Ltd, priority 2016, dated 2017):

How the values were obtained:
[1] = test system: AMP-dependent protein kinase (AMPK); details: disclosed in U.S. patent application Ser. No. 14/492,547; cited from earlier work
[2] = test system: wounds of STZ induced diabetic rats; assay: Excisional full-thickness skin wound healing in STZ induced diabetic rats (recovery rate); format: in vivo, Wistar rats
Method: Salsolinol ointments at 0.01 mg/g, 0.03 mg/g, 0.1 mg/g, and 0.3 mg/g were prepared respectively by dissolving 0.5 mg, 1.5 mg, 5 mg, and 15 mg of salsoinol in 2.5 mL of glycerol (Sigma Inc., MO, USA) plus 1.0 mL of Creagel emulsifier (First Chemical, TPE, Taiwan) and 45.5 mL of distilled water. Vehicle was composed of glycerol (2.5 mL), Creagel emulsifier (1.0 mL), and distilled water (45.5 mL).
Swivazin®-HN cream was used as positive control for treating the wounds of STZ induced diabetic rats, which contained asiaticoside (4 mg/g), isolated from Centella asiatica. […]. Ethnopharmacology 65 (1999): 1-11].
Adult male Wistar rats were used at four weeks of age, purchased from BioLASCO Taiwan, and were acclimatized in a room with 12-12 h light (7:00 A.M. to 7:00 P.M.)-dark (7:00 P.M. to 7:00 A.M.) cycle, a temperature of 23±1° C., and a humidity of 65±5%.
Each rat had free access to both water and standard rodent soft chow ad libitum. STZ was injected intraperitoneally at a dose of 65 mg/Kg body weight.
All experimental procedures were approved by and performed in compliance with the guidelines of the Institutional Animal Care and Use Committee (IACUC). All surgeries were conducted while animals were under continuous anesthesia with 4% isoflurane.
The dorsal skin was shaved and then disinfected with 10% povidone-iodine before an excisional full-thickness square-shaped skin wound (1.5×1.5 cm) was induced using a sterile wound maker. Animal was then housed alone in its cage to avoid any further wound damage.
. The groups were administered at the same amount once daily and the wounds were photopictured on Day 1, Day 3, Day 5, Day 7, Day 10, and Day 15 and the sizes of the wounds were analyzed using Visual Basic 6.0. Wound closure at experimental time points was calculated as percentage of initial wound area, called as “recovery rate.”

| SMILES | activation of AMPK [1] | recovery rate (in words) ([2]; FIG. 2, salsolinol 0.01 mg/g, Day 7-15) | wound closure and healing ([2]; FIG. 2, salsolinol at all the concentrations (0.01, 0.03, 0.1, 0.3 mg/g)) | recovery rate (wound closure as percentage of initial wound area) ([2]; FIG. 2, salsolinol ointment 0.01 mg/g once daily, topical, Day 15) | difference in recovery between D+Salsolinol and Swivazin (DP, positive control) ([2]; FIG. 3) | recovery rate compared with groups without treatment (DC) or vehicle (DV) ([2]; FIG. 3, D+Salsolinol) |
| --- | --- | --- | --- | --- | --- | --- |
| COc1ccc(C[C@H]2c3cc(O)c(OC)cc3CCN2C)cc1O [reticuline, reference compound] | can activate AMP-dependent protein kinase (AMPK) | – | – | – | – | – |
| CC1NCCc2cc(O)c(O)cc21 (stereo not shown) [salsolinol] | can activate AMP-dependent protein kinase (AMPK) | relatively improved recovery rate | could enhance the wound closure and healing | over 97% | no obvious difference | significantly increased recovery rate |
